{"source": "paper PMC8161026", "about": "“Synthesis and Anticancer Activity Evaluation of 5-[2-Chloro-3-(4-nitrophenyl)-2-propenylidene]-4-thiazolidinones” (Molecules, 2021)", "key": {"UO-31": {"tested_on": "UO-31", "test": "NCI DTP 60 cell line screen, SRB"}, "RPMI-8226 [1]": {"tested_on": "RPMI-8226", "conditions": "RPMI-8226 (Leukemia), 48 h, SRB"}, "ACHN": {"tested_on": "ACHN", "test": "NCI DTP 60 cell line screen, SRB", "conditions": "48 h"}, "SNB-75": {"tested_on": "SNB-75", "test": "cells", "conditions": "Homo sapiens, SNB-75, 48 h"}, "RPMI-8226 [2]": {"tested_on": "RPMI-8226", "test": "cells", "conditions": "Homo sapiens, RPMI-8226, 48 h"}, "SW-620": {"tested_on": "SW-620", "conditions": "SW-620 (Colon Cancer), 48 h, SRB"}, "HCT-116 [3]": {"tested_on": "HCT-116", "test": "cells", "conditions": "Homo sapiens, HCT-116, 48 h"}, "CAKI-1": {"tested_on": "CAKI-1", "test": "NCI DTP 60 cell line screen, SRB"}, "EKVX": {"tested_on": "EKVX", "conditions": "EKVX (Non-Small Cell Lung Cancer), 48 h, SRB"}, "SK-MEL-2": {"tested_on": "SK-MEL-2", "conditions": "SK-MEL-2 (Melanoma), 48 h, SRB"}, "NCI-H522": {"tested_on": "NCI-H522", "test": "NCI DTP 60 cell line screen, SRB"}, "A549/ATCC": {"tested_on": "A549/ATCC", "conditions": "A549/ATCC (Non-Small Cell Lung Cancer), 48 h, SRB"}, "KM12": {"tested_on": "KM12", "conditions": "KM12 (Colon Cancer), 48 h, SRB"}, "SK-MEL-28 [4]": {"tested_on": "SK-MEL-28", "test": "cells", "conditions": "Homo sapiens, SK-MEL-28, 48 h"}, "SK-MEL-28 [5]": {"tested_on": "SK-MEL-28", "conditions": "SK-MEL-28 (Melanoma), 48 h, SRB"}, "K-562": {"tested_on": "K-562", "test": "cells", "conditions": "Homo sapiens, K562, 48 h"}, "HOP-62": {"tested_on": "HOP-62", "conditions": "HOP-62 (Non-Small Cell Lung Cancer), 48 h, SRB"}, "TK-10": {"tested_on": "TK-10", "test": "NCI DTP 60 cell line screen, SRB"}, "HCT-116 [6]": {"tested_on": "HCT-116", "conditions": "HCT-116 (Colon Cancer), 48 h, SRB"}, "MALME-3M": {"tested_on": "MALME-3M", "test": "NCI DTP 60 cell line screen, SRB", "conditions": "48 h"}, "MDA-MB-435": {"tested_on": "MDA-MB-435", "test": "NCI DTP 60 cell line screen, SRB"}, "60 tumor cell lines": {"tested_on": "60 tumor cell lines", "test": "NCI60 full panel MG_MID", "description": "At the first stage of biological activity study, the antitumor activity screening of the selected compounds 2b, 2c, 2f, 2h, and 2j was performed according to the NCI DTP (USA) standard protocol at the concentrations ranging from 10^−4 to 10^−8 M toward 60 tumor cell lines. The percentage of growth was evaluated spectrophotometrically versus controls not treated with test agents after 48 h exposure and using SRB protein assay to estimate cell viability or growth. Dose–response parameters were calculated for each cell line: GI50—molar concentration of the compound that inhibits 50% net cell growth; TGI—molar concentration of the compound leading to the total inhibition; and LC50—molar concentration of the compound leading to 50% net cell death. Furthermore, mean graph midpoints (MG_MID) were calculated for each of the parameters, giving an average activity parameter over all cell lines for the tested compound. For the MG_MID calculation, insensitive cell lines were included with the highest concentration tested.\nPrimary anticancer assay was performed on a panel of approximately sixty human tumor cell lines derived from nine neoplastic diseases, in accordance with the protocol of the Drug Evaluation Branch, National Cancer Institute, Bethesda. Tested compounds were added to the culture at a single concentration (10^−5 M) and the cultures were incubated for 48 h. End point determinations were made with a protein binding dye, sulforhodamine B (SRB). […] The percentage growth was evaluated spectrophotometrically versus controls not treated with test agents.\nDose–response parameters (GI50, TGI, LC50) were calculated for each compound. […] The drug concentration resulting in total growth inhibition (TGI) was calculated from Ti = Tz. The LC50 (concentration of drug resulting in a 50% reduction in the measured protein at the end of the drug treatment as compared to that at the beginning) indicating a net loss of cells following treatment was calculated from [(Ti − Tz)/Tz] × 100 = −50 (2). Values were calculated for each of these parameters if the level of activity was reached; however, if the effect was not reached or was excessive, the value for that parameter was expressed as more or less than the maximum or minimum concentration tested."}, "UACC-62": {"tested_on": "UACC-62", "test": "NCI DTP 60 cell line screen, SRB"}, "BT-549": {"tested_on": "BT-549", "test": "NCI DTP 60 cell line screen, SRB"}}}
{"smiles": "O=C1NC(=S)S/C1=C\\C(Cl)=C\\c1ccc([N+](=O)[O-])cc1", "note": "[Compound 2b, 5-[(Z,2Z)-2-Chloro-3-(4-nitrophenyl)-2-propenylidene]-2-thioxo-4-thiazolidinone]", "values": [{"measurement": "GI50", "setting": "UO-31; Homo sapiens, UO-31, 48 h", "value": 4.12, "unit": "µM"}, {"measurement": "CC50", "setting": "UO-31; Homo sapiens, UO-31, 48 h, read-out: LC50", "value": "> 50", "unit": "µM"}, {"measurement": "TGI", "setting": "UO-31; UO-31 (Renal Cancer), 48 h, SRB", "value": 21.8, "unit": "µM"}, {"measurement": "TGI", "setting": "RPMI-8226 [1]", "value": 20.6, "unit": "µM"}, {"measurement": "TGI", "setting": "ACHN; ACHN (Renal Cancer), SRB", "value": 11.8, "unit": "µM"}, {"measurement": "GI50", "setting": "ACHN; Homo sapiens, ACHN", "value": 3.64, "unit": "µM"}, {"measurement": "CC50", "setting": "ACHN; Homo sapiens, ACHN, read-out: LC50", "value": 31.7, "unit": "µM"}, {"measurement": "GI50", "setting": "SNB-75", "value": 7.59, "unit": "µM"}, {"measurement": "CC50", "setting": "SNB-75; read-out: LC50", "value": "> 50", "unit": "µM"}, {"measurement": "GI50", "setting": "RPMI-8226 [2]", "value": 1.54, "unit": "µM"}, {"measurement": "CC50", "setting": "RPMI-8226 [2]; read-out: LC50", "value": "> 50", "unit": "µM"}, {"measurement": "TGI", "setting": "SW-620", "value": 7.62, "unit": "µM"}, {"measurement": "GI50", "setting": "HCT-116 [3]", "value": 2.93, "unit": "µM"}, {"measurement": "CC50", "setting": "HCT-116 [3]; read-out: LC50", "value": 33.7, "unit": "µM"}, {"measurement": "TGI", "setting": "CAKI-1; CAKI-1 (Renal Cancer), 48 h, SRB", "value": 25.2, "unit": "µM"}, {"measurement": "GI50", "setting": "CAKI-1; Homo sapiens, CAKI-1, 48 h", "value": 7.14, "unit": "µM"}, {"measurement": "CC50", "setting": "CAKI-1; Homo sapiens, CAKI-1, 48 h, read-out: LC50", "value": "> 50", "unit": "µM"}, {"measurement": "TGI", "setting": "EKVX", "value": "> 50", "unit": "µM"}, {"measurement": "TGI", "setting": "SK-MEL-2", "value": 26.9, "unit": "µM"}, {"measurement": "GI50", "setting": "NCI-H522; Homo sapiens, NCI-H522, 48 h", "value": 3.19, "unit": "µM"}, {"measurement": "CC50", "setting": "NCI-H522; Homo sapiens, NCI-H522, 48 h, read-out: LC50", "value": 42.3, "unit": "µM"}, {"measurement": "TGI", "setting": "NCI-H522; NCI-H522 (Non-Small Cell Lung Cancer), 48 h, SRB", "value": 13.1, "unit": "µM"}, {"measurement": "TGI", "setting": "A549/ATCC", "value": "> 50", "unit": "µM"}, {"measurement": "TGI", "setting": "KM12", "value": 14.6, "unit": "µM"}, {"measurement": "GI50", "setting": "SK-MEL-28 [4]", "value": 5.87, "unit": "µM"}, {"measurement": "CC50", "setting": "SK-MEL-28 [4]; read-out: LC50", "value": 25.9, "unit": "µM"}, {"measurement": "TGI", "setting": "SK-MEL-28 [5]", "value": 12.3, "unit": "µM"}, {"measurement": "GI50", "setting": "K-562", "value": 1.44, "unit": "µM"}, {"measurement": "CC50", "setting": "K-562; read-out: LC50", "value": "> 50", "unit": "µM"}, {"measurement": "TGI", "setting": "HOP-62", "value": 33.1, "unit": "µM"}, {"measurement": "GI50", "setting": "TK-10; Homo sapiens, TK-10, 48 h", "value": 10.6, "unit": "µM"}, {"measurement": "CC50", "setting": "TK-10; Homo sapiens, TK-10, 48 h, read-out: LC50", "value": "> 50", "unit": "µM"}, {"measurement": "TGI", "setting": "TK-10; TK-10 (Renal Cancer), 48 h, SRB", "value": 23.2, "unit": "µM"}, {"measurement": "TGI", "setting": "HCT-116 [6]", "value": 11.0, "unit": "µM"}, {"measurement": "GI50", "setting": "MALME-3M; Homo sapiens, Malme-3M", "value": 4.93, "unit": "µM"}, {"measurement": "CC50", "setting": "MALME-3M; Homo sapiens, Malme-3M, read-out: LC50", "value": 44.6, "unit": "µM"}, {"measurement": "TGI", "setting": "MALME-3M; MALME-3M (Melanoma), SRB", "value": 14.9, "unit": "µM"}, {"measurement": "GI50", "setting": "MDA-MB-435; Homo sapiens, MDA-MB-435, 48 h", "value": 8.57, "unit": "µM"}, {"measurement": "CC50", "setting": "MDA-MB-435; Homo sapiens, MDA-MB-435, 48 h, read-out: LC50", "value": "> 50", "unit": "µM"}, {"measurement": "TGI", "setting": "MDA-MB-435; MDA-MB-435 (Breast Cancer), 48 h, SRB", "value": 47.9, "unit": "µM"}, {"measurement": "GI50", "setting": "60 tumor cell lines; Homo sapiens, read-out: 60 lines MG_MID, GI50", "value": 4.79, "unit": "µM"}, {"measurement": "CC50", "setting": "60 tumor cell lines; Homo sapiens, read-out: 60 lines MG_MID, LC50", "value": 43.5, "unit": "µM"}, {"measurement": "60 lines MG_MID, TGI", "setting": "60 tumor cell lines; mean over all cell lines", "value": 20.3, "unit": "µM"}, {"measurement": "GI50", "setting": "UACC-62; Homo sapiens, UACC-62, 48 h", "value": 5.75, "unit": "µM"}, {"measurement": "CC50", "setting": "UACC-62; Homo sapiens, UACC-62, 48 h, read-out: LC50", "value": 27.2, "unit": "µM"}, {"measurement": "TGI", "setting": "UACC-62; UACC-62 (Melanoma), 48 h, SRB", "value": 12.5, "unit": "µM"}, {"measurement": "TGI", "setting": "BT-549; BT-549 (Breast Cancer), 48 h, SRB", "value": 4.74, "unit": "µM"}, {"measurement": "GI50", "setting": "BT-549; Homo sapiens, BT-549, 48 h", "value": 1.47, "unit": "µM"}, {"measurement": "CC50", "setting": "BT-549; Homo sapiens, BT-549, 48 h, read-out: LC50", "value": 27.2, "unit": "µM"}]}
